The text below walks through data of patent US8071612B2, “6-alkenyl and 6-phenylalkyl substituted 2-quinolinones and 2-quinoxalinones as poly(ADP-ribose) polymerase inhibitors” (Janssen Pharmaceutica, NV, priority 2004, dated 2011).

The structures appear in SMILES notation.

Assay [1] deals with T1, PARP-1 enzyme (Homo sapiens, UniProt P09874).
T1 construct: made in house
The assay is described as follows: In vitro Scintillation Proximity Assay (SPA) for PARP-1 inhibitory activity. It counts as biochemical. Conditions: nicked DNA activated PARP-1, [3H]-NAD+, biotinylated histones; read-out: In vitro SPA pIC50 (converted). The protocol: Compounds of the present invention were tested in an in vitro assay based on SPA technology (proprietary to Amersham Pharmacia Biotech).
In principle, the assay relies upon the well established SPA technology for the detection of poly(ADP-ribosyl)ation of biotinylated target proteins, i.e histones. This ribosylation is induced using nicked DNA activated PARP-1 enzyme and [^3H]-nicotinamide adenine dinucleotide ([^3H]-NAD^+) as ADP-ribosyl donor.
As inducer of PARP-1 enzyme activity, nicked DNA was prepared. For this, 25 mg of DNA (supplier: Sigma) was dissolved in 25 ml DNAse buffer (10 mM Tris-HCl, pH 7.4; 0.5 mg/ml Bovine Serum Albumine (BSA); 5 mM MgCl2.6H2O and 1 mM KCl) to which 50 μl DNAse solution (1 mg/ml in 0.15 M NaCl) was added. After an incubation of 90 min. at 37° C., the reaction was terminated by adding 1.45 g NaCl, followed by a further incubation at 58° C. for 15 min. The reaction mixture was cooled on ice and dialysed at 4° C. for respectively 1.5 and 2 hours against 1.5 l of 0.2 M KCl, and twice against 1.5 l of 0.01 M KCl for 1.5 and 2 h respectively. The mixture was aliquoted and stored at −20° C. Histones (1 mg/ml, type II-A, supplier: Sigma) were biotinylated using the biotinylation kit of Amersham and stored aliquoted at −20° C. A stock solution of 100 mg/ml SPA poly(vinyl toluene) (PVT) beads (supplier: Amersham) was made in PBS. A stock solution of [^3]H-NAD^+ was made by adding 120 μl of [^3H]-NAD^+ (0.1 mCi/ml, supplier: NEN) to 6 ml incubation buffer (50 mM Tris/HCl, pH 8; 0.2 mM DTT; 4 mM MgCl2). A solution of 4 mM NAD^+ (supplier: Roche) was made in incubation buffer (from a 100 mM stock solution in water stored at −20° C.). The PARP-1 enzyme was produced using art known techniques, i.e. cloning and expression of the protein starting from human liver cDNA. Information concerning the used protein sequence of the PARP-1 enzyme including literature references can be found in the Swiss-Prot database under primary accession number P09874. Biotinylated histones and PVT-SPA beads were mixed and pre-incubated for 30 min. at room temperature. PARP-1 enzyme (concentration was lot dependent) was mixed with the nicked DNA and the mixture was pre-incubated for 30 min. at 4° C. Equal parts of this histones/PVT-SPA beads solution and PARP-1 enzyme/DNA solution were mixed and 75 μl of this mixture together with 1 μl of compound in DMSO and 25 μl of [^3H]-NAD^+ was added per well into a 96-well microtiterplate. The final concentrations in the incubation mixture were 2 μg/ml for the biotinylated histones, 2 mg/ml for the PVT-SPA beads, 2 μg/ml for the nicked DNA and between 5-10 μg/ml for the PARP-1 enzyme. After incubation of the mixture for 15 min. at room temperature, the reaction was terminated by adding 100 μl of 4 mM NAD^+ in incubation buffer (final concentration 2 mM) and plates were mixed.
The beads were allowed to sediment for at least 15 min. and plates transferred to a TopCountNXT™ (Packard) for scintillation counting, values were expressed as counts per minute (cpm). For each experiment, controls (containing PARP-1 enzyme and DMSO without compound), a blank incubation (containing DMSO but no PARP-1 enzyme or compound) and samples (containing PARP-1 enzyme and compound dissolved in DMSO) were run in parallel. All compounds tested were dissolved and eventually further diluted in DMSO. In first instance, compounds were tested at a concentration of 10^−5 M or 10^−6M. […] In each test, the blank value was subtracted from both the control and the sample values. The control sample represented maximal PARP-1 enzyme activity. For each sample, the amount of cpm was expressed as a percentage of the mean cpm value of the controls. When appropriate, IC50-values (concentration of the drug, needed to reduce the PARP-1 enzyme activity to 50% of the control) were computed using linear interpolation between the experimental points just above and below the 50% level. […]
In general terms: SPA uses beads or plates that emit light when radiolabelled molecules are held near them.

Assay [2] concerns the target T1, PARP-1 enzyme. The assay is described as follows: In vitro filtration assay for PARP-1 inhibitory activity. Type of assay: biochemical. The note with it: nicked DNA activated PARP-1, [32P]-NAD, histones; read-out: In vitro filtration assay pIC50 (converted). The protocol:
Compounds of the present invention were tested in an in vitro filtration assay assessing PARP-1 activity (triggered in the presence of nicked DNA) by means of its histone poly (ADP-ribosyl)ation activity using [^32P]-NAD as ADP-ribosyl donor. The radioactive ribosylated histones were precipitated by trichloroacetic acid (TCA) in 96-well filterplates and the incorporated [^32P] measured using a scintillation counter
A mixture of histones (stock solution: 5 mg/ml in H2O), NAD (stock solution: 100 mM in H2O), and [^32P]-NAD^+ in incubation buffer (50 mM Tris/HCl, pH 8; 0.2 mM DTT; 4 mM MgCl2) was made. A mixture of the PARP-1 enzyme (5-10 μg/ml) and nicked DNA was also made. The nicked DNA was prepared as described in the in vitro SPA for PARP-1 inhibitory activity. Seventy-five μl of the PARP-1 enzyme/DNA mixture together with 1 μl of compound in DMSO and 25 μl of histones-NAD^+/[^32P]-NAD^+ mixture was added per well of a 96-well filterplate (0.45 μm, supplier Millipore). The final concentrations in the incubation mixture were 2 μg/ml for the histones, 0.1 mM for the NAD^+, […] (0.5 μC) for the [^32P]-NAD^+ and 2 μg/ml for the nicked DNA. Plates were incubated for 15 min. at room temperature and the reaction was terminated by the addition of 10 μl ice cold 100% TCA followed by the addition of 10 μl ice-cold BSA solution (1% in H2O). The protein fraction was allowed to precipitate for 10 min. at 4° C. and plates were vacuum filtered. The plates were subsequently washed with, for each well, 1 ml of 10% ice cold TCA, 1 ml of 5% ice cold TCA and 1 ml of 5% TCA at room temperature. Finally 100 μl of scintillation solution (Microscint 40, Packard) was added to each well and the plates were transferred to a TopCountNXT™ (supplier: Packard) for scintillation counting and values were expressed as counts per minute (cpm). For each experiment, controls (containing PARP-1 enzyme and DMSO without compound), a blank incubation (containing DMSO but no PARP-1 enzyme or compound) and samples (containing PARP-1 enzyme and compound dissolved in DMSO) were run in parallel. All compounds tested were dissolved and eventually further diluted in DMSO. In first instance, compounds were tested at a concentration of 10^−5M. […] In each test, the blank value was subtracted from both the control and the sample values. The control sample represented maximal PARP-1 enzyme activity. For each sample, the amount of cpm was expressed as a percentage of the mean cpm value of the controls. When appropriate, IC50-values (concentration of the drug, needed to reduce the PARP-1 enzyme activity to 50% of the control) were computed using linear interpolation between the experimental points just above and below the 50% level. Herein the effects of test compounds are expressed as pIC50 (the negative log value of the IC50-value). As a reference compound, 4-amino-1,8-naphthalimide was included to validate the filtration assay.

T1 sequence (P09874 whole entry): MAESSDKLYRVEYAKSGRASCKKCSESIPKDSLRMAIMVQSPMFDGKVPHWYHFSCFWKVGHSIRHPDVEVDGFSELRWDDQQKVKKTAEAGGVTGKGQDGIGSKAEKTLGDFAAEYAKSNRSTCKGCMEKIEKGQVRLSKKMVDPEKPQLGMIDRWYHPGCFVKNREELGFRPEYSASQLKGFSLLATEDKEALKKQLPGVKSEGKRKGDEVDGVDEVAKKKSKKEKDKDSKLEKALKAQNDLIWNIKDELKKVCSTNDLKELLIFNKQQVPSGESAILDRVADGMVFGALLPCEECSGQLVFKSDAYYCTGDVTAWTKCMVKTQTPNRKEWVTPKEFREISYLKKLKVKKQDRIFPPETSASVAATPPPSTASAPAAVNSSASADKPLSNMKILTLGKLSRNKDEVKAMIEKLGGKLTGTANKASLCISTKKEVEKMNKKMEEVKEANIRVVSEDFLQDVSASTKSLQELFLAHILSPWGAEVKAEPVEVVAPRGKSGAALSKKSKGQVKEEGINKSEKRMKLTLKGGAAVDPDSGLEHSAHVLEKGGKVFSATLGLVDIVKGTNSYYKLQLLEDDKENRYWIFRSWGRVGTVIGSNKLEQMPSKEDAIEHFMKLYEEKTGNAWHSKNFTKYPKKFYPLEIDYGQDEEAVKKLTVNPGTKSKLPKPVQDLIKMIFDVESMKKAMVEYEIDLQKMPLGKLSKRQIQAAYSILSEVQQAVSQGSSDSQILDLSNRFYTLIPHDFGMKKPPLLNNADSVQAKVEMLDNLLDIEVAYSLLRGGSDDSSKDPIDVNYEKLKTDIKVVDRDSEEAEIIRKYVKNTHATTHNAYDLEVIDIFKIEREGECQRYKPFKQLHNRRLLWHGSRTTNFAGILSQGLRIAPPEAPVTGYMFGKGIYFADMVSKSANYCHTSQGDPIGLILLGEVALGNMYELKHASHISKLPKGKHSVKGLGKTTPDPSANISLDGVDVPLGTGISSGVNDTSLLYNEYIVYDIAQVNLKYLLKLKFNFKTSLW

Take `Cc1cc2cc(C(NC(=O)NCCCN3CCCCC3)c3ccccc3)ccc2[nH]c1=O` (stereo not shown) [Compound 7]: the IC50 at PARP-1 enzyme [1] is 1.43 µM; on PARP-1 enzyme [2], 7.33 µM.

In the case of `Cc1cc2cc(C(c3ccccc3)c3cncn3C)ccc2[nH]c1=O` (stereo not shown) [Compound 10], the values for the IC50 at PARP-1 enzyme [1] and on PARP-1 enzyme [2] were 0.711 µM and 2.39 µM, respectively.

Consider `CCc1cc2cc(C(c3ccccc3)N3CCC(NCCOC)CC3)ccc2[nH]c1=O` (stereo not shown) [Compound 13], for which the IC50 on PARP-1 enzyme [1] is 0.22 µM; on PARP-1 enzyme [2], 2.11 µM.

As for `Cc1cc2cc(C(NCCCc3cccs3)c3ccccc3)ccc2[nH]c1=O` (stereo not shown) [Compound 23], the IC50 at PARP-1 enzyme [1] was 1.41 µM; on PARP-1 enzyme [2], 3.27 µM.

Consider `Cc1cc2cc(C(NCCCn3cccc3)c3ccccc3)ccc2[nH]c1=O` (stereo not shown) [Compound 24], for which the figures for the IC50 at PARP-1 enzyme [1] and on PARP-1 enzyme [2] were 2.72 µM and 7.59 µM, respectively.

Take `CC(=O)NCCNC(c1ccccc1)c1ccc2[nH]c(=O)c(C)cc2c1` (stereo not shown) [Compound 25]: the IC50 on PARP-1 enzyme [1] is 0.498 µM; on PARP-1 enzyme [2], 3.9 µM.

Regarding `CCc1cc2cc(C(NCCCN3CCCCC3)c3ccccc3)ccc2[nH]c1=O` (stereo not shown) [Compound 26], the IC50 was 0.119 µM on PARP-1 enzyme [1] and 0.918 µM at PARP-1 enzyme [2].

For the compound `Cc1cc2cc(C(NCCC(=O)c3ccccc3)c3ccccc3)ccc2[nH]c1=O` (stereo not shown) [Compound 27], the IC50 at PARP-1 enzyme [1] was 0.925 µM; at PARP-1 enzyme [2], 2.33 µM.

`CCc1cc2cc(C(OCCN(C)C)c3ccccc3)ccc2[nH]c1=O` (stereo not shown) [Compound 28]: the IC50 at PARP-1 enzyme [1] was 0.226 µM; at PARP-1 enzyme [2] it was 0.773 µM.

In the case of `Cc1cc2cc(C(NCCO)c3ccccc3)ccc2[nH]c1=O` (stereo not shown) [Compound 29], the IC50 at PARP-1 enzyme [1] was 0.796 µM; at PARP-1 enzyme [2], 4.78 µM.

With `CCc1nc2cc(C(c3ccccc3)n3cncn3)ccc2[nH]c1=O` (stereo not shown) [Compound 30], the IC50 on PARP-1 enzyme [1] is 0.362 µM; on PARP-1 enzyme [2] it was 1.8 µM.

As for `CCc1cc2cc(C(c3cccc(C(F)(F)F)c3)N3CCC(=O)CC3)ccc2[nH]c1=O` (stereo not shown) [Compound 37], the IC50 on PARP-1 enzyme [1] is 0.302 µM; at PARP-1 enzyme [2], 1.17 µM.

Regarding `CCc1cc2cc(C(c3ccc(Cl)cc3)N3CCC(=O)CC3)ccc2[nH]c1=O` (stereo not shown) [Compound 38], the IC50 is 0.316 µM at PARP-1 enzyme [1] and 2.65 µM on PARP-1 enzyme [2].

As for `CCc1cc2cc(C(c3ccccc3)N3CCN(C)CC3)ccc2[nH]c1=O` (stereo not shown) [Compound 39], the IC50 at PARP-1 enzyme [1] is 0.596 µM; at PARP-1 enzyme [2], 10 µM.

Consider `CCc1cc2cc(C(c3cccc(C(F)(F)F)c3)n3cnnc3)ccc2[nH]c1=O` (stereo not shown) [Compound 72], for which the IC50 at PARP-1 enzyme [1] was 0.211 µM; at PARP-1 enzyme [2], 2.1 µM.

`CCc1cc2cc(C(c3cccc(Cl)c3)N3CCC(=O)CC3)ccc2[nH]c1=O` (stereo not shown) [Compound 77]: the IC50 at PARP-1 enzyme [1] is 0.252 µM; at PARP-1 enzyme [2], 1.74 µM.

On to `CCc1cc2cc(C(c3cccc(C(F)(F)F)c3)n3cncn3)ccc2[nH]c1=O` (stereo not shown) [Compound 78], for which the IC50 on PARP-1 enzyme [1] was 0.197 µM; on PARP-1 enzyme [2] it was 2.37 µM.

Regarding `CCc1cc2cc(C(c3cccc(C(F)(F)F)c3)N3CCN(C)CC3)ccc2[nH]c1=O` (stereo not shown) [Compound 80], the IC50 is 0.692 µM on PARP-1 enzyme [1] and 3.91 µM at PARP-1 enzyme [2].

Consider `CCc1cc2cc(C(c3ccccc3)N3CCC(=O)CC3)ccc2[nH]c1=O` (stereo not shown) [Compound 81], for which the IC50 at PARP-1 enzyme [1] was 0.305 µM; at PARP-1 enzyme [2] it was 3.97 µM.

On to `Cc1cc2cc(C(C)(C#N)c3ccccc3)ccc2[nH]c1=O` (stereo not shown) [Compound 85], for which the IC50 at PARP-1 enzyme [1] is 0.189 µM; on PARP-1 enzyme [2], 1.19 µM.

As for `CCc1nc2cc(CCC(c3ccc(Cl)cc3)n3ccnc3)ccc2[nH]c1=O` (stereo not shown) [Compound 118], on PARP-1 enzyme [1], the IC50 is 0.869 µM.

Turning to `CCc1nc2cc(CC(c3ccccc3)n3ccnc3)ccc2[nH]c1=O` (stereo not shown) [Compound 119], the IC50 on PARP-1 enzyme [1] is 0.198 µM.

As for `CCc1nc2ccc(CC(c3ccc(Cl)cc3)N3CCC(C(N)=O)CC3)cc2[nH]c1=O` (stereo not shown) [Compound 120], the IC50 at PARP-1 enzyme [1] is 0.553 µM.

Regarding `CCc1nc2cc(CC(c3ccc(Cl)cc3)N3CCC(O)(c4ccccc4)CC3)ccc2[nH]c1=O` (stereo not shown) [Compound 121], on PARP-1 enzyme [1], the IC50 is 0.83 µM.

For the compound `CCc1cc2cc(/C(=C/CN3CCCCC3)c3ccc4c(c3)OCCO4)ccc2[nH]c1=O` [Compound 129], the IC50 on PARP-1 enzyme [1] is 0.0571 µM.

For `CCc1cc2cc(/C(=C\CN3CCCCC3)c3ccc4c(c3)OCCO4)ccc2[nH]c1=O` [Compound 130], the IC50 on PARP-1 enzyme [1] is 0.188 µM.

On to `CCc1cc2cc(/C(=C\CN(C)C)c3ccc4c(c3)OCCO4)ccc2[nH]c1=O` [Compound 136], for which, at PARP-1 enzyme [1], the IC50 was 0.137 µM.

`CCc1cc2cc(/C(=C\CN(C)C)c3ccc(Cl)cc3)ccc2[nH]c1=O` [Compound 137]: on PARP-1 enzyme [1], the IC50 was 0.428 µM.

Regarding `CCc1cc2cc(/C(=C/CN(C)C)c3ccc4c(c3)OCCO4)ccc2[nH]c1=O` [Compound 138], the IC50 on PARP-1 enzyme [1] was 0.063 µM.

As to `CCc1cc2cc(C(=C3CCN(CCCn4c(=O)[nH]c5ccccc54)CC3)c3ccc4c(c3)OCCO4)ccc2[nH]c1=O` [Compound 141], at PARP-1 enzyme [1], the IC50 was 0.121 µM.

With `CCc1cc2cc(C(=C3CCN(C/C=C/c4ccccc4)CC3)c3ccc4c(c3)OCCO4)ccc2[nH]c1=O` [Compound 142], the IC50 at PARP-1 enzyme [1] was 0.322 µM.

Regarding `CCc1cc2cc(C(=C3CCN(CC(O)COc4ccc(F)cc4)CC3)c3ccc4c(c3)OCCO4)ccc2[nH]c1=O` (stereo not shown) [Compound 143], the IC50 at PARP-1 enzyme [1] was 0.157 µM.
